Experimental data: patent US20220346382A1, “COMPOSITION FOR TREATING AND PREVENTING BACTERIAL GROWTH ON A SUBSTRATE” (PETROLIAM NASIONAL BERHAD (PETRONAS), priority 2019, published 2022)

Tests used:
[1] = system: bacteria of produced water sample B04S; test: Viable cell count from suspension cells by hemocytometer (ASTM E 2315-03); format: cell-based
Method: (§1) Formulations were prepared by mixing the listed chemical components in the stated concentrations with produced water sample BO4S in a flask (Table 1). These formulations were tested in subsequent examples for biocide activity.
In a typical procedure, a glass hemocytometer and coverslip was cleaned with alcohol prior to use. The coverslip was moisturised with water and affixed to the hemocytometer. The presence of Newton's refraction rings under the coverslip indicated proper adhesion.
The flasks containing the formulations were gently swirled to ensure that the cells were evenly distributed. Before the cells settled to the bottom of the flasks, 0.5 mL of a cell suspension was transferred out to an Eppendorf tube using a 5 mL sterile pipette. Trypan blue (three to five drops) was added to the tube. 100 μL of the Trypan blue-treated cell suspension was pipetted and transferred to the hemocytometer. If a glass hemocytometer was used, both chambers were gently filled underneath the coverslip, allowing the cell suspension to be drawn out by capillary action. If a disposable hemocytometer was used, the cell suspension was pipetted into the well of the counting chamber, allowing capillary action to draw it inside. A microscope was used to focus on the grid lines of the hemocytometer with a 10× objective.

[2] = system: bacteria of produced water sample B04S; test: Cell dry weight of cultured formulations (NACE TM0194-2014); format: cell-based; conditions: Day 7, ambient temperature, static
Text: Bacteria were isolated from produced water samples from an oil field (denoted as samples B04S and B24) in accordance with NACE TM0194-2014.
In sample B04S, Bacillus sp., Bacillus thuringiensis and Marine actinomycetes were identified. In sample B24, Bacillus thuringiensis and Marine actinomycetes were identified. Marine actinomycete was identified to be the main species that support biofilm stability and a growth environment for other species including sulphate-reducing bacteria (SRB).
as §1
The formulations in Example 1 were cultured for seven days at ambient temperatures and static conditions in glass vials. Subsequently the cell dry weight of the formulations was quantified in accordance with NACE TM0194-2014. The cell dry weight for each formulation was reported in and/or converted to g/mL for comparison (FIG. 1).

Compound: tetrakis hydroxymethyl phosphonium sulfate [THPS, reference compound]
- suppression of bacteria growth ([1]; 100 ppm, Day 7): could not suppress bacteria growth

Compound: N[C@H](Cc1c[nH]c2ccccc12)C(=O)O [TT, D-Tryptophan]
- lower cell count as compared to THPS only ([1]; Day 5, sample B04S): 77%
- lower cell count as compared to THPS only ([1]; Day 7, sample B04S): 78%
- lower cell dry weight as compared to formulation THPS [2]: 40%
